Laboratory results published in patent US5716953A, “1,5-benzodiazepine derivatives” (Glaxo Wellcome S.p.A., priority 1993, dated 1998).
Counter-ions that a name gives are not always drawn. Like-named read-outs stand apart in the source and are kept apart here.

Experiments:
[1] = target: CCK-A receptor; test: CCK-A receptor binding (Pancreas Assay)
Method: Exp & Ther. 261, 1056-1063, 1992.
(§1) The binding affinity of the compounds of the invention for the CCK-A receptor (Pancreas Assay) and CCK-B receptor (guinea pig cortex assay) was determined using the procedure of G Dal Forno et al J. Pharmacol. Exp & Ther. 261-1056-1063.

[2] = target: T1, CCK-B receptor (Cavia porcellus, UniProt H0VZC5); test: CCK-B receptor binding (guinea pig cortex assay)
T1 construct: CCK-B receptor (guinea pig cortex assay); from tissue; host or cells: guinea pig cortex
T1 sequence (H0VZC5 1-426): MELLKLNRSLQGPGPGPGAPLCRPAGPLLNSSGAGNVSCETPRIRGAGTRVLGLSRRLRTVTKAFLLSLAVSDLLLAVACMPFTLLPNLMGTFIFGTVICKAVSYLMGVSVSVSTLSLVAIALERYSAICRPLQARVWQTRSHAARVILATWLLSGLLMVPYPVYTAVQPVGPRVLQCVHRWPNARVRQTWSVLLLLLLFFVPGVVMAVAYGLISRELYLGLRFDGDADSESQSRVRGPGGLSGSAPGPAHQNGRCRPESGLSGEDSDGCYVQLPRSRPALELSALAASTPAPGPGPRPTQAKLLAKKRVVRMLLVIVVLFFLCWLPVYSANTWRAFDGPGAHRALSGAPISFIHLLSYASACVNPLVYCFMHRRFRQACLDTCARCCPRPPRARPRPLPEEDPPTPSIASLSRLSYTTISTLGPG
Method: The greater affinity of the compounds of the invention for the CCK-B receptor over the CCK-A receptor has also been established using the CCK receptor binding assays described by G Dal Forno et al., J. Pharmcol. Exp & Ther. 261, 1056-1063, 1992.
as §1, with “261-1056-1063. The pKi values determined with representative compounds of invention were as follows: […]” for “261-1056-1063.”

[3] = tested on: mice; test: oral administration to mice, observation of untoward effects at anxiolytic doses; assay type: in vivo; settings: orally; for untoward effects: at doses at which the compounds exhibit anxiolytic activity
Description: (§2) The compounds of the invention are essentially non-toxic and therapeutically useful doses.

[4] = tested on: rats; test: oral administration to rats, observation of untoward effects at anxiolytic doses; assay type: in vivo; settings: orally
Description: as §2

[5] = CCK-B receptor, guinea pig cortex assay, read-out: pKi CCK-B (converted)

Compound | pKi CCK-A [1] | Ki [2, 5] [nM] | also measured
COc1ccc(NC(=O)NC2C(=O)N(CCC(C)C)c3ccccc3N(CCN3CCOCC3)C2=O)cc1 (stereo not shown) [Example 4, N-[2,4-Dioxo-1-(3-methyl-1-butyl)-5-[2-(4-morpholino)ethyl]-2,3,4,5-tetrahydro-1H-1,5-benzodiazepin-3-yl]-N'-(4-methoxyphenyl)urea] | 5.29 | 7.94 | 
CC(C)CCN1C(=O)C(NC(=O)Nc2ccccc2)C(=O)N(CCN2CCOCC2)c2ccccc21 (stereo not shown) [Example 1, N-[2,4-Dioxo-1-(3-methyl-1-butyl)-5-[2-(4-morpholinyl)ethyl]-2,3,4,5-tetrahydro-1H-1,5-benzodiazepin-3-yl]-N'-phenylurea] | 6.17 | 2.88 | 
CN(C)CCCN1C(=O)C(NC(=O)Nc2ccccc2)C(=O)N(CC23CC4CC(CC(C4)C2)C3)c2ccccc21 (stereo not shown) [Example 8, N-[1-(1-Adamantylmethyl)-5-[3-(dimethylamino)propyl]-2,4-dioxo-2,3,4,5-tetrahydro-1H-1,5-benzodiazepin-3-yl]-N'-phenylurea] | 4.69 | 3.63 | 
CCN(CC)CCN1C(=O)C(NC(=O)Nc2ccccc2)C(=O)N(CC2CCCCC2)c2ccccc21 (stereo not shown) [Example 13, N-[1-(Cyclohexylmethyl)-2,4-dioxo-5-[(2-diethylamino)ethyl]-2,3,4,5-tetrahydro-1H-1,5-benzodiazepin-3-yl]-N'-phenylurea] | 5.82 | 1.02 | 
O=C(Nc1ccccc1)NC1C(=O)N(CCN2CCOCC2)c2ccccc2N(CC23CC4CC(CC(C4)C2)C3)C1=O (single isomer, unassigned; (-)) [Example 18, (-)[1-(1-Adamantylmethyl)-2,4-dioxo-5-[2-(4-morpholino)ethyl]-2,3,4,5-tetrahydro-1H-1,5-benzodiazepin-3-yl]-N'-phenylurea, hydrochloride salt] |  |  | anxiolytic activity [3]: exhibit anxiolytic activity; untoward effects [3]: no untoward effects were observed; anxiolytic activity [4]: exhibit anxiolytic activity; untoward effects ([4]; at doses at which the compounds exhibit anxiolytic activity): no untoward effects were observed
CCN(CC)CCN1C(=O)C(NC(=O)Nc2ccccc2)C(=O)N(CCC(C)C)c2ccccc21 (stereo not shown) [Example 6] | 5.39 | 1.58 | 
CN(C)CCN1C(=O)C(NC(=O)Nc2ccccc2)C(=O)N(CC23CC4CC(CC(C4)C2)C3)c2ccccc21 (stereo not shown) [Example 7, N-[1-(1-Adamantylmethyl)-5-[2-(dimethylamino)ethyl]-2,4-dioxo-2,3,4,5-tetrahydro-1H-1,5-benzodiazepin-3-yl]-N'-phenylurea] | 5.49 | 1.29 | 
O=C(Nc1ccccc1)NC1C(=O)N(CCN2CCOCC2)c2ccccc2N(CC23CC4CC(CC(C4)C2)C3)C1=O (stereo not shown) [Example 9, N-[1-(1-Adamantylmethyl)-2,4-dioxo-5-[2-(4-morpholino)ethyl]-2,3,4,5-tetrahydro-1H-benzodiazepin-3-yl]-N'-phenylurea] | 5.69 | 0.575 | 
CC(C)CCN1C(=O)C(NC(=O)Nc2ccccc2)C(=O)N(CCN(C)C)c2ccccc21 (stereo not shown) [Example 3, N-[5-[2-(Dimethylamino)ethyl]-2,4-dioxo-1-(3-methyl-1-butyl) -2,3,4,5-tetrahydro-1H-1,5-benzodiazepin-3-yl]-N'-phenylurea] | 5.48 | 4.68 | 
Cc1cccc(NC(=O)NC2C(=O)N(CCN3CCCCCC3)c3ccccc3N(c3ccccc3)C2=O)c1 (stereo not shown) [Example 17, N-[2,4-Dioxo-1-[2-(hexamethyleneimino)ethyl]-5-phenyl-2,3,4,5-tetrahydro-1H-benzodiazepin-3-yl]-N'-(3-tolyl)urea] | 5.08 |  | Ki [2]: 2 nM
CC(C)CCN1C(=O)C(NC(=O)Nc2ccc(O)cc2)C(=O)N(CCN2CCOCC2)c2ccccc21 (stereo not shown) [Example 5, N-[2,4-Dioxo-1-(3-methyl-1-butyl)-5-[2-(4-morpholinyl)ethyl]-2,3,4,5-tetrahydro-1H-1,5-benzodiazepin-3-yl]-N'-(4-hydroxyphenyl)urea] | 5.08 | 7.41 | 
CC(C)CCN1C(=O)C(NC(=O)Nc2ccccc2)C(=O)N(CCN2CCCCC2)c2ccccc21 (stereo not shown) [Example 2, N-[2,4-Dioxo-1-(3-methyl-1-butyl)-5-[2-(1-piperidino)ethyl]-2,3,4,5-tetrahydro-1H-1,5-benzodiazepin-3-yl]-N'-phenylurea] | 5.69 | 6.76 | 

Now from value to compound, other results behind:

pKi CCK-A [1] | Ki [2, 5] [nM] | Compound | also measured
5.99 | 1.95 | CC(C)CCN1C(=O)C(NC(=O)Nc2ccc(Cl)cc2)C(=O)N(CCN2CCOCC2)c2ccccc21 (stereo not shown) [Example 15, N-[1-(3-methyl-1-butyl)-2,4-dioxo-5-[2-(4-morpholino)ethyl]-2,3,4,5-tetrahydro-1H-benzodiazepin-3-yl]-N'-(4-chlorophenyl)urea] | 
5.83 | 3.63 | CC(C)CCN1C(=O)C(NC(=O)Nc2ccc(C(F)(F)F)cc2)C(=O)N(CCN2CCOCC2)c2ccccc21 (stereo not shown) [Example 16, N-[2,4-Dioxo-1-(3-methyl-1-butyl)-5-[2-(4-morpholino)ethyl]-2,3,4,5-tetrahydro-1H-1,5-benzodiazepin-3-yl]-N'-(4-trifluoromethyl)phenylurea] | 
5.69 | 0.214 | O=C(Nc1ccccc1)NC1C(=O)N(CCN2CCOCC2)c2ccccc2N(CC23CC4CC(CC(C4)C2)C3)C1=O (single isomer, unassigned) [Example 11 (isomer 1), N-[1-(1-Adamantylmethyl)-2,4-dioxo-5-[2-(4-morpholino)ethyl]-2,3,4,5-tetrahydro-1H-benzodiazepin-3-yl]-N'-phenylurea Isomer 1] | anxiolytic activity [3]: exhibit anxiolytic activity; untoward effects [3]: no untoward effects were observed
5.02 | 1.05 | O=C(Nc1ccccc1)NC1C(=O)N(CCN2CCCC2)c2ccccc2N(CC23CC4CC(CC(C4)C2)C3)C1=O (stereo not shown) [Example 10, N-[1-(1-Adamantylmethyl)-2,4-dioxo-5-[2-(1-pyrrolidino)ethyl]-2,3,4,5-tetrahydro-1H-benzodiazepin-3-yl]-N'-phenylurea] | 
5.04 |  | N[C@@H](CO)CN1C(=O)C(NC(=O)Nc2ccccc2)C(=O)N(CC23CC4CC(CC(C4)C2)C3)c2ccccc21 (stereo partly drawn) [Example 12, N-[1-(1-Adamantylmethyl)-2,4-dioxo-5-[(3-hydroxy-2(R)amino)propyl]-2,3,4,5-tetrahydro-1H-1,5-benzodiazepin-3-yl]-N'-phenylurea hydrochloride] | pKi CCK-B ([2]; CCK-B receptor, guinea pig cortex assay): 8.18
5.88 | 4.37 | O=C(Nc1ccccc1)NC1C(=O)N(CCN2CCOCC2)c2cc(F)ccc2N(CC23CC4CC(CC(C4)C2)C3)C1=O (stereo not shown) [Example 14, N-[1-(1-Adamantylmethyl)-2,4-dioxo-7-fluoro-5-[2-(4-morpholino)ethyl]-2,3,4,5-tetrahydro-1H-1,5-benzodiazepin-3-yl]-N'-phenylurea] | 
